Results published in the supplement of paper PMC11061612.

Assays:
[1] = compound: COc1nnc2ccc(N3CCC(c4ccc(OCCN5CCN(C)C(=O)[C@H]5C)cc4)CC3)nn12 [AZD5153]; conditions: max 1 µM
Outline: (§1)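 After 24 hours at 37°C and 5% CO2 in 1536-well plates holding 7.5 μl of DMEM/F12 or RPMI with 10% FBS, cancer cell lines were dosed for 72 hours, with final DMSO typically 0.2%. Viability came from CellTiter-Glo 2.0 luminescence, scaled between the means of blank wells and DMSO wells. A non-linear mixed effects model fitted a two-parameter logistic curve to each dose response to give the single-agent IC50.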

[2] = compound: C[C@@H](Nc1cc(F)cc(F)c1)c1cc(C(=O)N(C)C)cc2c(=O)cc(N3CCOCC3)oc12 [AZD8186]
Outline: as §1

[3] = compound: CC(=O)c1c(C)c2cnc(Nc3ccc(N4CCNCC4)cn3)nc2n(C2CCCC2)c1=O [Palbociclib]; conditions: max 10 µM
Outline: as §1

[4] = compound: COc1cc(Nc2ncc3c(n2)-c2ccc(Cl)cc2C(c2c(F)cccc2OC)=NC3)ccc1C(=O)O [Alisertib]; conditions: max 10 µM
Outline: as §1

[5] = compound: CC1=C(C(=CC=C1)Cl)NC(=O)C2=CN=C(S2)NC3=CC(=NC(=N3)C)N4CCN(CC4)CCO [Dasatinib]; conditions: max 2 µM
Outline: as §1

[6] = compound: O=C(c1cc(Cc2n[nH]c(=O)c3ccccc23)ccc1F)N1CCN(C(=O)C2CC2)CC1 [Olaparib]; conditions: max 10 µM
Outline: as §1

[7] = compound: CN(CC[C@H](CSC1=CC=CC=C1)NC2=C(C=C(C=C2)S(=O)(=O)NC(=O)C3=CC=C(C=C3)N4CCC(CC4)[C@H](C5=CC=CC=C5C6=CC=C(C=C6)Cl)O)S(=O)(=O)C(F)(F)F)CCO [AZD4320]; conditions: max 1 µM
Outline: as §1

[8] = compound: C[C@@H]1COCCN1C2=NC(=NC(=C2)C3(CC3)[S@](=N)(=O)C)C4=C5C=CNC5=NC=C4 [AZD6738]; conditions: max 10 µM
Outline: as §1

[9] = compound: COc1cccc(OCCCN)c1-c1cc(Nc2cnc(C#N)cn2)n[nH]1 [Prexasertib]; conditions: max 1 µM
Outline: as §1

[10] = compound: CC(=O)Nc1cccc(-n2c(=O)n(C3CC3)c(=O)c3c(Nc4ccc(I)cc4F)n(C)c(=O)c(C)c32)c1 [Trametinib]; conditions: max 1 µM
Outline: as §1

[11] = compound: COc1cc2ncnc(Nc3ccc(F)c(Cl)c3)c2cc1OCCCN1CCOCC1 [Gefitinib]; conditions: max 10 µM
Outline: as §1

[12] = compound: Cc1c2c(nn1C)CSCc1cc(n(C)n1)CSc1cc(c3ccccc3c1)OCCCc1c(C(=O)O)n(C)c3c-2c(Cl)ccc13 [AZD5991]; conditions: max 1 µM
Outline: as §1

[13] = compound: C1CC(C1)(C(=O)[O-])C(=O)[O-].N.N.[Pt+2] [Carboplatin]; conditions: max 10 µM
Outline: as §1

[14] = compound: CN(C)CCCOc1ccc(-c2ccc3ncc4c(c3c2)n(C2CCOCC2)c(=O)n4C)cn1 [AZD0156]; conditions: max 1 µM
Outline: as §1

[15] = compound: C[C@@H](c1ccc2nccn2c1)n1nnc2ncc(-c3cnn(C)c3)nc21 [Savolitinib]; conditions: max 1 µM
Outline: as §1

[16] = compound: CC1=CN2[C@@H](C1)C=NC3=CC(=C(C=C3C2=O)OC)OCCCCCOC4=C(C=C5C(=C4)N=C[C@@H]6CC(=CN6C5=O)C)OC [SG3199]; conditions: max 0.001 µM
Outline: as §1

[17] = compound: CC(C)n1c(=O)n(C)c2cnc3cc(F)c(-c4ccc(OCCCN5CCCCC5)nc4)cc3c21 [AZD1390]; conditions: max 0.3 µM
Outline: as §1

[18] = compound: CCc1c2c(nc3ccc(O)cc13)-c1cc3c(c(=O)n1C2)COC(=O)[C@]3(O)CC [SN-38]; conditions: max 0.3 µM
Outline: as §1

[19] = compound: COc1cccc2c1C(=O)c1c(O)c3c(c(O)c1C2=O)C[C@@](O)(C(=O)CO)C[C@@H]3O[C@H]1C[C@H](N)[C@H](O)[C@H](C)O1 [Doxorubicin]; conditions: max 1 µM
Outline: as §1

[20] = compound: NC1(c2ccc(-c3nc4ccn5c(=O)[nH]nc5c4cc3-c3ccccc3)cc2)CCC1 [MK-2206]; conditions: max 10 µM
Outline: as §1

[21] = compound: C[C@@H](Oc1cc(-c2cnn(C3CCNCC3)c2)cnc1N)c1c(Cl)ccc(F)c1Cl [Crizotinib]; conditions: max 10 µM
Outline: as §1

[22] = compound: C=CCn1c(=O)c2cnc(Nc3ccc(N4CCN(C)CC4)cc3)nc2n1-c1cccc(C(C)(C)O)n1 [AZD1775]; conditions: max 1 µM
Outline: as §1

[23] = compound: CCN(CCO)CCCOc1ccc2c(Nc3cc(CC(=O)Nc4cccc(F)c4)[nH]n3)ncnc2c1 [AZD2811]; conditions: max 1 µM
Outline: as §1

[24] = compound: Cc1nc(-c2cn3c(n2)-c2ccc(-c4cnn(C(C)(C)C(N)=O)c4)cc2OCC3)n(C(C)C)n1 [Taselisib]; conditions: max 10 µM
Outline: as §1

[25] = compound: O=c1[nH]cc(F)c(=O)[nH]1 [5-Fluorouracil]; conditions: max 20 µM
Outline: as §1

[26] = compound: C1CN(CCC1(C(=O)N[C@@H](CCO)C2=CC=C(C=C2)Cl)N)C3=NC=NC4=C3C=CN4 [AZD5363]; conditions: max 10 µM
Outline: as §1

[27] = compound: N#Cc1cnc(Nc2cc(NC[C@H]3CNCCO3)c(C(F)(F)F)cn2)cn1 [SRA737]; conditions: max 10 µM
Outline: as §1

[28] = compound: Cn1cnc2c(F)c(Nc3ccc(Br)cc3Cl)c(C(=O)NOCCO)cc21 [Selumetinib]; conditions: max 10 µM
Outline: as §1

[29] = compound: CS(=O)(=O)CCNCc1ccc(-c2ccc3ncnc(Nc4ccc(OCc5cccc(F)c5)c(Cl)c4)c3c2)o1 [Lapatinib]; conditions: max 10 µM
Outline: as §1

[30] = compound: CC1(C)CCC(CN2CCN(c3ccc(C(=O)NS(=O)(=O)c4ccc(NCC5CCOCC5)c([N+](=O)[O-])c4)c(Oc4cnc5[nH]ccc5c4)c3)CC2)=C(c2ccc(Cl)cc2)C1 [Venetoclax]; conditions: max 1 µM
Outline: as §1

[31] = compound: CC(=O)O[C@H]1C(=O)[C@@]2(C)[C@H]([C@H](OC(=O)c3ccccc3)[C@]3(O)C[C@H](OC(=O)[C@H](O)[C@@H](NC(=O)c4ccccc4)c4ccccc4)C(C)=C1C3(C)C)[C@]1(OC(C)=O)CO[C@@H]1C[C@@H]2O [Paclitaxel]; conditions: max 3 µM
Outline: as §1

[32] = compound: COc1cc([C@@H]2c3cc4c(cc3[C@@H](O[C@@H]3O[C@@H]5CO[C@@H](C)O[C@H]5[C@H](O)[C@H]3O)[C@H]3COC(=O)[C@H]23)OCO4)cc(OC)c1O [Etoposide]; conditions: max 10 µM
Outline: as §1

[33] = compound: O=C(Nc1ccc2[nH]nc(-c3ccncc3)c2c1)[C@@H]1CCN(CC(=O)N2CCN(c3ccc(-c4ncccn4)cc3)CC2)C1; conditions: max 5 µM
Outline: as §1

[34] = compound: Cc1cc2ncnn2cc1Nc1ncc2c(n1)n(C1CCOCC1)c(=O)n2C [AZD7648]; conditions: max 10 µM
Outline: as §1

[35] = compound: Nc1ccn([C@@H]2O[C@H](CO)[C@@H](O)C2(F)F)c(=O)n1 [Gemcitabine]; conditions: max 0.3 µM
Outline: as §1

[36] = compound: C1CN(CCC1(C(=O)N[C@@H](CCO)C2=CC=C(C=C2)Cl)N)C3=NC=NC4=C3C=CN4 [Capivasertib]; conditions: max 10 µM
Outline: as §1

Row | Cell Line | IC50, cell viability 72 h [1] [nM] | IC50, cell viability 72 h ([2]; max 10 µM) [nM] | IC50, cell viability 72 h [3] [nM] | IC50, cell viability 72 h [4] [nM] | IC50, cell viability 72 h [5] [nM] | IC50, cell viability 72 h [6] [nM] | IC50, cell viability 72 h [7] [nM] | IC50, cell viability 72 h [8] [nM] | IC50, cell viability 72 h [9] [nM] | IC50, cell viability 72 h [10] [nM] | IC50, cell viability 72 h [11] [nM] | IC50, cell viability 72 h [12] [nM] | IC50, cell viability 72 h [13] [nM] | IC50, cell viability 72 h [14] [nM] | IC50, cell viability 72 h [15] [nM] | IC50, cell viability 72 h [16] [nM] | IC50, cell viability 72 h [17] [nM] | IC50, cell viability 72 h [18] [nM] | IC50, cell viability 72 h [19] [nM] | IC50, cell viability 72 h [20] [nM] | IC50, cell viability 72 h [21] [nM] | IC50, cell viability 72 h [22] [nM] | IC50, cell viability 72 h [23] [nM] | IC50, cell viability 72 h [24] [nM] | IC50, cell viability 72 h [25] [nM] | IC50, cell viability 72 h [26] [nM] | IC50, cell viability 72 h [27] [nM] | IC50, cell viability 72 h [28] [nM] | IC50, cell viability 72 h [29] [nM] | IC50, cell viability 72 h [30] [nM] | IC50, cell viability 72 h [31] [nM] | IC50, cell viability 72 h [32] [nM] | IC50, cell viability 72 h [33] [nM] | IC50, cell viability 72 h [34] [nM] | IC50, cell viability 72 h ([2]; max 3 µM) [nM] | IC50, cell viability 72 h [35] [nM] | IC50, cell viability 72 h [36] [nM]
1 | KP-N-YN (Neuroblastoma) | > 1000 | > 10000 | > 10000 | 1090 | > 2000 | > 10000 | 49.2 | 751 | 5.36 | > 1000 | > 10000 | > 1000 | > 10000 | > 1000 | > 1000 | > 1 | > 300 | 35 | 749 | > 10000 | > 10000 | 307 | 402 | 5580 | > 20000 | > 10000 | 751 | > 10000 | > 10000 | 344 | 110 | > 10000 | > 5000 | > 10000 | – | – | –
2 | NB13 (Neuroblastoma) | 953 | – | > 10000 | 244 | > 2000 | > 10000 | 139 | 2220 | 15.9 | > 1000 | > 10000 | > 1000 | > 10000 | > 1000 | > 1000 | > 1 | > 300 | 13.7 | 194 | > 10000 | 3970 | 322 | > 1000 | > 10000 | > 20000 | – | 3640 | > 10000 | > 10000 | > 1000 | – | 2430 | > 5000 | > 10000 | > 3000 | > 300 | > 10000
